Results on one molecule are retold here after publication PMC7933930, “Development of a small molecule that corrects misfolding and increases secretion of Z α1‐antitrypsin” (EMBO Molecular Medicine, 2021).

The test system of data set [1] is Z α1‐antitrypsin polymers. Nature of the data set: Liver polymer load in Z α1‐antitrypsin transgenic mice (2C1 immunohistochemistry). Type of data set: in vivo, mouse. The following applies: 100 mg/kg three times a day for 20 days, versus vehicle. The protocol: Since GSK716 blocks polymer formation in cells, we explored the effect of dosing GSK716 on liver polymer levels. […] GSK716 was dosed at 100 mg/kg three times a day for 20 days. […] Liver polymer levels were investigated by staining with 2C1 anti‐polymer monoclonal antibody and were scored blind by a pathologist or by quantification using an algorithm to measure all areas of positive staining (Fig EV1). There was no difference observed in total liver polymer load when assessed by manual or quantitative scoring (Fig 6B and C). There was no significant fibrosis in any of the liver sections. Intrahepatic α1‐antitrypsin was also assessed by ELISA. […] Treatment with GSK716 increased the monomer measured in liver homogenate by approx. fourfold in keeping with the changes seen in blood.
Formalin‐fixed, paraffin‐embedded livers from all mice were sectioned and stained with haematoxylin and eosin (H&E) and periodic acid Schiff (PAS) with diastase to examine tissue quality and the presence of diastase‐resistant polymer inclusions, respectively. […] Representative sections of liver from each mouse were blindly evaluated by a Board‐Certified Veterinary Pathologist and ranked in order of polymer content. A semi‐automated image analysis solution was developed to quantify total polymer content (Fig EV1). […]

The next data set deals with OPRM1 (Homo sapiens, UniProt P35372). Nature of the data set: Off‐target panel: OPRM1. Type of data set: cell-based. The protocol:
(§1) GSK716 selectivity and PK properties were profiled in order to investigate the suitability of GSK716 for progression into in vivo studies and the potential for taking it forward as a clinical candidate for testing in humans. Since GSK716 results in loss of inhibitory activity of α1‐antitrypsin, the effect of the compound was assessed on other closely related serpins. […] Furthermore, there were no off‐target effects in a panel of assays considered predictive of known safety liabilities that precluded further development of GSK716 (Table EV1).

The nature of data set [2]: Oral pharmacokinetics in dog. Type of data set: in vivo. The settings on record: beagle, whole blood, ≤ 3 mg/kg, read-out: F (oral bioavailability). The protocol: […] Blood samples were taken into EDTA, diluted and mixed with acetonitrile containing internal standard (alprazolam) and centrifuged to precipitate proteins. Aliquots of the resultant supernatant were analysed by LC‐MS/MS, and concentrations of GSK716 in blood were determined. Non‐compartmental pharmacokinetic analysis (NCA) was carried out using Phoenix WinNonLin 6.3 (Certara L.P.). Free drug was measured in Z α1‐antitrypsin transgenic mice by dialysing tissue samples in rapid equilibrium dialysis cassettes.

Data set [3] concerns Z α1‐antitrypsin polymers in iPSC‐derived human hepatocytes (ZZ genotype). Nature of the data set: Z α1‐antitrypsin polymerisation in ZZ iPSC‐derived human hepatocytes. The format is cell-based. The following applies: Hepatocyte, n = 16, read-out: mean pIC50, polymerisation (converted).
In the next data set the target is hERG (Homo sapiens, UniProt Q12809). Nature of the data set: Off‐target panel: hERG (Barracuda). The format is cell-based. The settings on record: Blocker, read-out: Mean (PXC50) (converted). Here is the method: as §1
The target in the next data set is Serotonin 5HT1B (Homo sapiens, UniProt P28222). Nature of the data set: Off‐target panel: Serotonin 5HT1B (DRX). Type of data set: cell-based. The protocol:
as §1

Another data set has as its target PDE3A (Homo sapiens, UniProt Q14432). Nature of the data set: Off‐target panel: PDE3A. The settings on record: Inhibition, read-out: Mean (PXC50). Type of data set: biochemical. Here is the method: as §1
For a further data set, the target named is PXR (human) (Homo sapiens, UniProt O75469). Nature of the data set: Off‐target panel: PXR (human). Type of data set: cell-based. The settings on record: Activator, read-out: Mean (PXC50) (converted). The protocol: as §1
In the next data set the target is Adrenergic α1B (Homo sapiens, UniProt P35368). Nature of the data set: Off‐target panel: Adrenergic α1B (DRX). The format is cell-based. Here is the method: as §1
The target in another data set is PI3Kg (Homo sapiens, UniProt P48736). Nature of the data set: Off‐target panel: PI3Kg. Type of data set: biochemical. The settings on record: Inhibition, read-out: Mean (PXC50). Here is the method:
as §1

A further data set concerns the target Adrenergic α2C (Homo sapiens, UniProt P18825). Nature of the data set: Off‐target panel: Adrenergic α2C. Type of data set: cell-based. Here is the method: as §1
The target of the next data set is Serotonin transporter (Homo sapiens, UniProt P31645). Nature of the data set: Off‐target panel: Serotonin transporter (DRX). The format is cell-based. Here is the method: as §1
Another data set addresses Cycloxygenase2 (COX2) (Homo sapiens, UniProt P35354). Nature of the data set: Off‐target panel: Cycloxygenase2 (COX2). The format is biochemical. The settings on record: Inhibition, read-out: Mean (PXC50). Here is the method:
as §1

The next data set concerns the target Cannabinoid CB2 (Homo sapiens, UniProt P34972). Nature of the data set: Off‐target panel: Cannabinoid CB2. Type of data set: cell-based. Here is the method: as §1
A further data set concerns the target Adrenergic β2 (Homo sapiens, UniProt P07550). Nature of the data set: Off‐target panel: Adrenergic β2. Type of data set: cell-based. The following applies: read-out: Mean (PXC50). The protocol:
as §1

The target of the next data set is T1, Serotonin 5HT3 (Homo sapiens, UniProt P46098).
T1 sequence (P46098 24-478): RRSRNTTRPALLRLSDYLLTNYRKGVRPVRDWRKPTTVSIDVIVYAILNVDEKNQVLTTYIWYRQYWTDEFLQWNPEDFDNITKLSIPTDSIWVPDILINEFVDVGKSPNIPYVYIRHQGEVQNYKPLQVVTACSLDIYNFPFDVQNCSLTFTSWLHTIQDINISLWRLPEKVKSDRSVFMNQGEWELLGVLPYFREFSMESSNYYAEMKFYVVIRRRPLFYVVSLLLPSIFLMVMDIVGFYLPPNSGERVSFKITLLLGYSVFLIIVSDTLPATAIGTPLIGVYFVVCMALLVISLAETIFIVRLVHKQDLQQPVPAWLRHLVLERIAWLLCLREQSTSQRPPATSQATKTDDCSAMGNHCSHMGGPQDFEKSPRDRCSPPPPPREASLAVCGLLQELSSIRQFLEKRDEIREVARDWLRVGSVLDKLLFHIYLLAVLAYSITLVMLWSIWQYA
Nature of the data set: Off‐target panel: Serotonin 5HT3 (DRX). Type of data set: cell-based. Here is the method: as §1

Adrenergic β2, sequence (P07550 whole entry): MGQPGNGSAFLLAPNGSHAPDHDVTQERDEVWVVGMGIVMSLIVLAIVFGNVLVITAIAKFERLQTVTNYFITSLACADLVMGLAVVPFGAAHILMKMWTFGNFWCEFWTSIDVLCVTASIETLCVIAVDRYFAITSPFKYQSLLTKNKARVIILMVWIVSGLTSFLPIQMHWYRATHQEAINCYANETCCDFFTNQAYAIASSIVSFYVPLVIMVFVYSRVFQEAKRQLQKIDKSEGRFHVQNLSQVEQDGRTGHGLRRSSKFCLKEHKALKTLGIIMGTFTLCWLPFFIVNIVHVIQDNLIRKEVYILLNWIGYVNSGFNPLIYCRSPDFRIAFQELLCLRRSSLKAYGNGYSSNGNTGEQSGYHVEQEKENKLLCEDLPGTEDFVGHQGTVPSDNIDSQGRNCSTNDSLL
Serotonin 5HT1B, sequence (P28222 whole entry): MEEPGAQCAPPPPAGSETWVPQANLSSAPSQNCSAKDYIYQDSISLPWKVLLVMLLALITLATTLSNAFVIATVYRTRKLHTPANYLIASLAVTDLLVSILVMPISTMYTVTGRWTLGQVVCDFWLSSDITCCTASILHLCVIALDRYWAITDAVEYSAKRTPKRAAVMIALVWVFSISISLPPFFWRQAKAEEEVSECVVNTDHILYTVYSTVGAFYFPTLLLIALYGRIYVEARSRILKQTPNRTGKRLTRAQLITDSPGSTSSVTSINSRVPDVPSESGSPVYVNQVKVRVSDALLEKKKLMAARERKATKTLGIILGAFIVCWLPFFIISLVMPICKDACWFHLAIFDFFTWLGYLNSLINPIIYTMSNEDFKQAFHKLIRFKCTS
Cycloxygenase2 (COX2), sequence (P35354 18-604): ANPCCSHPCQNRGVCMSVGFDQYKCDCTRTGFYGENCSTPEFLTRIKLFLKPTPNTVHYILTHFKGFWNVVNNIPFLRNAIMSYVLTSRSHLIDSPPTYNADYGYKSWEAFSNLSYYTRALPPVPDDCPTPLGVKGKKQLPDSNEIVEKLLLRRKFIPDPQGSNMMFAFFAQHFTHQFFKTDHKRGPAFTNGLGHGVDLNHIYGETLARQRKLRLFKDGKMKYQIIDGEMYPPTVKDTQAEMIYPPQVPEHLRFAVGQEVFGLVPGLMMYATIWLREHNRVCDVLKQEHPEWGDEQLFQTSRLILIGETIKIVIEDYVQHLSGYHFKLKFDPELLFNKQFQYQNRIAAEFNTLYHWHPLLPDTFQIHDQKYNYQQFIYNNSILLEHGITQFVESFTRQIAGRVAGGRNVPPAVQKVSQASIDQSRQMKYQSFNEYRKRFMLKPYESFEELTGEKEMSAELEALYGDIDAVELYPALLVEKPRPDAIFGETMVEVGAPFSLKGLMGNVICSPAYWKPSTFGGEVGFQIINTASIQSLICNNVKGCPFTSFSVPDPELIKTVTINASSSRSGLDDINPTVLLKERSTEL
OPRM1, sequence (P35372 whole entry, species assumed): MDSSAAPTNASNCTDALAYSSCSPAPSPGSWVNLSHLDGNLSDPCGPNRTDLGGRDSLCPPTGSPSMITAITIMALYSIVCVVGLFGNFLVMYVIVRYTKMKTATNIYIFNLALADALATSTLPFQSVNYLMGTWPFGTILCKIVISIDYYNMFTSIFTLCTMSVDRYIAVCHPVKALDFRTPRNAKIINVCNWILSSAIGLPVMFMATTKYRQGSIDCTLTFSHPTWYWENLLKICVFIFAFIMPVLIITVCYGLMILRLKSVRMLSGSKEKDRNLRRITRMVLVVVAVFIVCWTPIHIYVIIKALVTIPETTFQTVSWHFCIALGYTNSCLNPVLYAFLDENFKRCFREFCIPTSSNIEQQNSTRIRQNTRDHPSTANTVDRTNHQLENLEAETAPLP
Cannabinoid CB2, sequence (P34972 whole entry): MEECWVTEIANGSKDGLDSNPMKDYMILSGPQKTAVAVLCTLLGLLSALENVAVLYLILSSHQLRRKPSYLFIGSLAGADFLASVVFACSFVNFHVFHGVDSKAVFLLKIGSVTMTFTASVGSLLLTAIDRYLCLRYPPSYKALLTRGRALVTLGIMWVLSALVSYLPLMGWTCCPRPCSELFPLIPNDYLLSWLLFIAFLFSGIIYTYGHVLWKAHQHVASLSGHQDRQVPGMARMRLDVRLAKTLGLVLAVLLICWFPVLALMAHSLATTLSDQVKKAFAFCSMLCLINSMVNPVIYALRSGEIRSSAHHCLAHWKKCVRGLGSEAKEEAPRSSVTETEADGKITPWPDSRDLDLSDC
hERG, sequence (Q12809 whole entry): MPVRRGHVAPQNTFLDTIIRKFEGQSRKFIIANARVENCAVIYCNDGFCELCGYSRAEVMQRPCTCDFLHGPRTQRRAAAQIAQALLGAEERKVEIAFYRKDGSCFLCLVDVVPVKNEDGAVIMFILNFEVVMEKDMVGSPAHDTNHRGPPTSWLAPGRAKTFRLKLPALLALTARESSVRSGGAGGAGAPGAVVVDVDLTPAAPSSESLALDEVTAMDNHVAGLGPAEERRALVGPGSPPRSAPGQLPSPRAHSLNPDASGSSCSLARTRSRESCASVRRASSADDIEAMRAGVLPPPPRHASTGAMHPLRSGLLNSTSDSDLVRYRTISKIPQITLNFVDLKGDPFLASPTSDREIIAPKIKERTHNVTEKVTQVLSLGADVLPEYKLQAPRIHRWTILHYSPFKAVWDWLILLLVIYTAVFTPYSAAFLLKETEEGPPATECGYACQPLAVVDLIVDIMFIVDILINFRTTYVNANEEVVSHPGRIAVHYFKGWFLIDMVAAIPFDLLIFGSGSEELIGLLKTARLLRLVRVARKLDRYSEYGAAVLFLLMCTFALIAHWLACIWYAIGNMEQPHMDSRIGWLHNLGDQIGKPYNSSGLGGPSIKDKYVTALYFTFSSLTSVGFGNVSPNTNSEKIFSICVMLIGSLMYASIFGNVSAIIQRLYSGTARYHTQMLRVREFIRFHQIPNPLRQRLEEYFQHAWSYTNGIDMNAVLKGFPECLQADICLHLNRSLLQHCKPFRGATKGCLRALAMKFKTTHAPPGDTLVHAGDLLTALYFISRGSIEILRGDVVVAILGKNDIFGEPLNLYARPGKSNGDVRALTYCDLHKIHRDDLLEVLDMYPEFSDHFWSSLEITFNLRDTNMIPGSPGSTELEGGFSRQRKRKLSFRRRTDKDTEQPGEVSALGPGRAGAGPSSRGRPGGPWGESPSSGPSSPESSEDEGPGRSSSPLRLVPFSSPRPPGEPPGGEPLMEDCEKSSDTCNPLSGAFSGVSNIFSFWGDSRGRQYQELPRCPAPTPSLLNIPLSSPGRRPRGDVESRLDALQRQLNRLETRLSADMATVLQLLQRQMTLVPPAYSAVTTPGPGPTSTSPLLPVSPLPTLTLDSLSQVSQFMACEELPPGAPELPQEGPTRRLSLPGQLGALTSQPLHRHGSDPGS
PDE3A, sequence (Q14432 whole entry, species assumed): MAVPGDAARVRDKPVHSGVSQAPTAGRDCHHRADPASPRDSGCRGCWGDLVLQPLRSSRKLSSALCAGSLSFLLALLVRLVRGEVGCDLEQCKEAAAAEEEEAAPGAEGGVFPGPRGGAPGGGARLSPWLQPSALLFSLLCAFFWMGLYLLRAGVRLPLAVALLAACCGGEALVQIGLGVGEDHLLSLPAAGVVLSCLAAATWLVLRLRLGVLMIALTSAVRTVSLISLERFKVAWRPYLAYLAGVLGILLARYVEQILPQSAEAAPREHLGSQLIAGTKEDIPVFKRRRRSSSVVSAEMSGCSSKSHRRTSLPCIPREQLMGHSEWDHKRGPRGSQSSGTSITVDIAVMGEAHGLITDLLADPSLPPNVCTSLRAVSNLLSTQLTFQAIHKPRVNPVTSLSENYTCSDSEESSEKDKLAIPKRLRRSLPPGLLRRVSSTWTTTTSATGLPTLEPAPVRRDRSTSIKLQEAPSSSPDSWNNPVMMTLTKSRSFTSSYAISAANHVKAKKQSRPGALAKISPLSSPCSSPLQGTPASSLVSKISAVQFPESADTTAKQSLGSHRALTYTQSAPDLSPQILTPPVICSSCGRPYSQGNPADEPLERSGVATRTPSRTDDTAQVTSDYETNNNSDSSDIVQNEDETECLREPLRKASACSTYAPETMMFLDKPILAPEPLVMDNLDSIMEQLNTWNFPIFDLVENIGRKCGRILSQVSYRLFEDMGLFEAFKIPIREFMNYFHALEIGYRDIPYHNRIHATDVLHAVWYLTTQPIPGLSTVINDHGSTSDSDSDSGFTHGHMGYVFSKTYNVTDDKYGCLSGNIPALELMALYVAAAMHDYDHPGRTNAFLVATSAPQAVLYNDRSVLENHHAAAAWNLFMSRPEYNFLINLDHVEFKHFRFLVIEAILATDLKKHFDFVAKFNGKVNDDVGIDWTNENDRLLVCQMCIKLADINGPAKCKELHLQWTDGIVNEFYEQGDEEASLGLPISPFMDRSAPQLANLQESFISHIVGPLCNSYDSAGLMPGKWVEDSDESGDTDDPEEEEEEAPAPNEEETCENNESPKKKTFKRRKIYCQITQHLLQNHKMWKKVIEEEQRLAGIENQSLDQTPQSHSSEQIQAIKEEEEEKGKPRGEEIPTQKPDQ
Adrenergic α1B, sequence (P35368 whole entry): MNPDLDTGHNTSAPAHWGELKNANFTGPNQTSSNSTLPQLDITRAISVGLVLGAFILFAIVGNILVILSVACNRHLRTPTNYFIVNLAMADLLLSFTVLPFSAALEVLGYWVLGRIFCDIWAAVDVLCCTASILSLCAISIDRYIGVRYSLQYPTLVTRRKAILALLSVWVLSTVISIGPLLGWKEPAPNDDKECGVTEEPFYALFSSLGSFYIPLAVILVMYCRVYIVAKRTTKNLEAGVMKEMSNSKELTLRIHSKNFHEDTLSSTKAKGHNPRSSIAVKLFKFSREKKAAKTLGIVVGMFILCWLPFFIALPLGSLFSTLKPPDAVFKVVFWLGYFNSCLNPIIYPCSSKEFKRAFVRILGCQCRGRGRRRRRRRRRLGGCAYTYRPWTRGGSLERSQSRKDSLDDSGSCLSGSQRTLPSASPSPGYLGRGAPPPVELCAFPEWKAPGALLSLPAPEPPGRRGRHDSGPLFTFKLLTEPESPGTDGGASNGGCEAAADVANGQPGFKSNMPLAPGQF

Take `CCC[C@@H](NC(=O)c1cccc2c1CC(=O)N2)[C@@H](O)c1cccc(F)c1C` [GSK716]: the “total liver polymer load (manual or quantitative scoring of 2C1 staining)” value in data set [1] was “no difference”. In addition, the EC50 on OPRM1 was > 100 µM; at Serotonin 5HT1B, > 100 µM; on PXR (human), 20 µM; on Adrenergic α2C, > 100 µM; at Cannabinoid CB2, > 100 µM; at Adrenergic β2 (Agonist), > 100 µM. Besides, at Serotonin 5HT3, the EC50 was > 50.1 µM. Also, the bioavailability in data set [2] came to 71%. Further, the IC50 in data set [3] was 0.398 µM; at hERG, 15.8 µM; against Serotonin 5HT1B, > 100 µM; at PDE3A it was > 100 µM; against Adrenergic α1B, > 25.1 µM; at PI3Kg it was > 31.6 µM. The IC50 was > 100 µM at Serotonin transporter, > 100 µM on Cycloxygenase2 (COX2), > 100 µM on Adrenergic β2 (Antagonist) and 31.6 µM against Serotonin 5HT3.
